# ± gives the standard deviation of the averaged measurements or the uncertainty stated by the source.
# Legend:
# [1] = test system: Caenorhabditis briggsae HK104; assay: mean adult lifespan of treated plate (days); higher = longer lifespan; settings: exposure: chronic from day 1 of adulthood
# Procedure: (§1)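 Dose-response lifespan assays in three C. briggsae strains (AF16, HK104, JU1348), run per plate (35-40 animals) on NGM with live OP50-1 and 51 uM FUdR at 20 C. Compound was added to the plate surface and worms were exposed from the first day of adulthood.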
# [2] = test system: Caenorhabditis briggsae JU1348; assay: as above; settings: exposure: chronic from day 1 of adulthood
# Procedure: as §1
# [3] = test system: Caenorhabditis briggsae AF16; assay: as above; settings: exposure: chronic from day 1 of adulthood
# Procedure: as §1
# [4] = test system: Caenorhabditis briggsae HK104; assay: Kaplan-Meier median lifespan of treated cohort (days); higher = longer lifespan; settings: exposure: chronic from day 1 of adulthood, single dose per compound (concentration not stated in sheet)
# Procedure: (§2)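 Caenorhabditis lifespan assay (CITP). Synchronised hermaphrodites were moved on the first day of adulthood onto 35 mm NGM plates with live E. coli OP50-1 and 51 uM FUdR, with the compound spread on the plate. Worms were kept at 20 C and scored for survival.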
# [5] = test system: Caenorhabditis briggsae JU1348; assay: as above; settings: exposure: chronic from day 1 of adulthood, single dose per compound (concentration not stated in sheet)
# Procedure: as §2
# [6] = test system: Caenorhabditis elegans N2; assay: as above; settings: exposure: chronic from day 1 of adulthood, single dose per compound (concentration not stated in sheet)
# Procedure: as §2
# [7] = test system: Caenorhabditis elegans MY16; assay: as above; settings: exposure: chronic from day 1 of adulthood, single dose per compound (concentration not stated in sheet)
# Procedure: as §2
# [8] = test system: Caenorhabditis elegans JU775; assay: as above; settings: exposure: chronic from day 1 of adulthood, single dose per compound (concentration not stated in sheet)
# Procedure: as §2
# [9] = test system: Caenorhabditis briggsae AF16; assay: as above; settings: exposure: chronic from day 1 of adulthood, single dose per compound (concentration not stated in sheet)
# Procedure: as §2
# [10] = test system: Caenorhabditis briggsae HK104; assay: mean adult lifespan of treated cohort (days); higher = longer lifespan; settings: exposure: chronic from day 1 of adulthood, single dose per compound (concentration not stated in sheet)
# Procedure: as §2
# [11] = test system: Caenorhabditis briggsae JU1348; assay: as above; settings: exposure: chronic from day 1 of adulthood, single dose per compound (concentration not stated in sheet)
# Procedure: as §2
# [12] = test system: Caenorhabditis elegans N2; assay: as above; settings: exposure: chronic from day 1 of adulthood, single dose per compound (concentration not stated in sheet)
# Procedure: as §2
# [13] = test system: Caenorhabditis elegans MY16; assay: as above; settings: exposure: chronic from day 1 of adulthood, single dose per compound (concentration not stated in sheet)
# Procedure: as §2
# [14] = test system: Caenorhabditis elegans JU775; assay: as above; settings: exposure: chronic from day 1 of adulthood, single dose per compound (concentration not stated in sheet)
# Procedure: as §2
# [15] = test system: Caenorhabditis briggsae AF16; assay: as above; settings: exposure: chronic from day 1 of adulthood, single dose per compound (concentration not stated in sheet)
# Procedure: as §2
# [16] = test system: Caenorhabditis briggsae HK104; assay: Kaplan-Meier median lifespan of treated plate (days); higher = longer lifespan; settings: exposure: chronic from day 1 of adulthood
# Procedure: as §1
# [17] = test system: Caenorhabditis briggsae JU1348; assay: as above; settings: exposure: chronic from day 1 of adulthood
# Procedure: as §1
# [18] = test system: Caenorhabditis briggsae AF16; assay: as above; settings: exposure: chronic from day 1 of adulthood
# Procedure: as §1
smiles,measurement,setting,value
Cc1ccc2c(c1)sc(-c1ccc(N(C)C)cc1)[n+]2C [Thioflavin T],mean adult lifespan of treated plate,[1]; 5.3 µM,33.5 ± 1.7
same,mean adult lifespan of treated plate,[1]; 26.5 µM,30.8 ± 3.1
same,mean adult lifespan of treated plate,[1]; 106 µM,5.61 ± 0.26
same,mean adult lifespan of treated plate,[1]; 530 µM,5.71 ± 0.35
same,mean adult lifespan of treated plate,[2]; 0.5 µM,24.1 ± 1.1
same,mean adult lifespan of treated plate,[2]; 5 µM,24.3 ± 1.2
same,mean adult lifespan of treated plate,[2]; 5.3 µM,19.49 ± 0.17
same,mean adult lifespan of treated plate,[2]; 25 µM,25.9 ± 1.1
same,mean adult lifespan of treated plate,[2]; 26.5 µM,28.3 ± 1.2
same,mean adult lifespan of treated plate,[2]; 100 µM,21.5 ± 1.7
same,mean adult lifespan of treated plate,[2]; 106 µM,5.01 ± 0.12
same,mean adult lifespan of treated plate,[2]; 530 µM,4.33 ± 0.092
same,mean adult lifespan of treated plate,[3]; 5.3 µM,28.1 ± 1.5
same,mean adult lifespan of treated plate,[3]; 26.5 µM,17 ± 1
same,mean adult lifespan of treated plate,[3]; 106 µM,5.48 ± 0.12
same,mean adult lifespan of treated plate,[3]; 530 µM,5.75 ± 0.26
same,Kaplan-Meier median lifespan,[4],41.4 ± 3.5
same,Kaplan-Meier median lifespan,[5],28.1 ± 4.4
same,Kaplan-Meier median lifespan,[6],21.4 ± 5
same,Kaplan-Meier median lifespan,[7],27.2 ± 3.1
same,Kaplan-Meier median lifespan,[8],27.7 ± 2.4
same,Kaplan-Meier median lifespan,[9],31.7 ± 5.8
same,mean adult lifespan of treated cohort,[10],39.5 ± 1
same,mean adult lifespan of treated cohort,[11],27.6 ± 0.89
same,mean adult lifespan of treated cohort,[12],20.2 ± 0.93
same,mean adult lifespan of treated cohort,[13],26.7 ± 0.74
same,mean adult lifespan of treated cohort,[14],25.5 ± 1
same,mean adult lifespan of treated cohort,[15],31.3 ± 1.2
same,Kaplan-Meier median lifespan,[16]; 5.3 µM,33 ± 2.8
same,Kaplan-Meier median lifespan,[16]; 26.5 µM,35
same,Kaplan-Meier median lifespan,[16]; 106 µM,6 ± 1.4
same,Kaplan-Meier median lifespan,[16]; 530 µM,5.5 ± 2.1
same,Kaplan-Meier median lifespan,[17]; 0.5 µM,24 ± 3.1
same,Kaplan-Meier median lifespan,[17]; 5 µM,23.6 ± 2.9
same,Kaplan-Meier median lifespan,[17]; 25 µM,26.2 ± 3.4
same,Kaplan-Meier median lifespan,[17]; 26.5 µM,33 ± 2.8
same,Kaplan-Meier median lifespan,[17]; 100 µM,22.4 ± 7
same,Kaplan-Meier median lifespan,[17]; 106 µM,4.67 ± 0.58
same,Kaplan-Meier median lifespan,[17]; 530 µM,4
same,Kaplan-Meier median lifespan,[18]; 5.3 µM,28
same,Kaplan-Meier median lifespan,[18]; 26.5 µM,24
same,Kaplan-Meier median lifespan,[18]; 106 µM,5.67 ± 1.1
same,Kaplan-Meier median lifespan,[18]; 530 µM,5.67 ± 1.1
O=C(O)CCC(=O)C(=O)O [alpha-ketoglutaric acid],mean adult lifespan of treated plate,[1]; 100 µM,33.8 ± 1.2
same,mean adult lifespan of treated plate,[1]; 500 µM,35.3 ± 1.6
same,mean adult lifespan of treated plate,[1]; 800 µM,33.7 ± 1.4
same,mean adult lifespan of treated plate,[1]; 1000 µM,36.7 ± 1.3
same,mean adult lifespan of treated plate,[1]; 4000 µM,33 ± 1.4
same,mean adult lifespan of treated plate,[1]; 16000 µM,23.6 ± 1.1
same,mean adult lifespan of treated plate,[1]; 40000 µM,24.7 ± 1.1
same,mean adult lifespan of treated plate,[2]; 100 µM,23.3 ± 1.4
same,mean adult lifespan of treated plate,[2]; 500 µM,23.5 ± 1.1
same,mean adult lifespan of treated plate,[2]; 800 µM,22.7 ± 1.1
same,mean adult lifespan of treated plate,[2]; 1000 µM,25.5 ± 1.3
same,mean adult lifespan of treated plate,[2]; 4000 µM,24.6 ± 1.9
same,mean adult lifespan of treated plate,[2]; 16000 µM,14.7 ± 1.2
same,mean adult lifespan of treated plate,[2]; 40000 µM,11.7 ± 0.54
same,mean adult lifespan of treated plate,[3]; 100 µM,27 ± 1.5
same,mean adult lifespan of treated plate,[3]; 500 µM,21.7 ± 1.1
same,mean adult lifespan of treated plate,[3]; 800 µM,24.9 ± 0.84
same,mean adult lifespan of treated plate,[3]; 1000 µM,27.5 ± 1.4
same,mean adult lifespan of treated plate,[3]; 4000 µM,26.5 ± 1.3
same,mean adult lifespan of treated plate,[3]; 16000 µM,20.2 ± 1.1
same,mean adult lifespan of treated plate,[3]; 40000 µM,20.3 ± 1
same,Kaplan-Meier median lifespan,[4],34.7 ± 2.5
same,Kaplan-Meier median lifespan,[5],25.9 ± 2.3
same,Kaplan-Meier median lifespan,[6],21.9 ± 1.6
same,Kaplan-Meier median lifespan,[7],25.3 ± 1.4
same,Kaplan-Meier median lifespan,[8],25.6 ± 1.7
same,Kaplan-Meier median lifespan,[9],26.3 ± 1.7
same,mean adult lifespan of treated cohort,[10],33.8 ± 0.71
same,mean adult lifespan of treated cohort,[11],24.6 ± 0.77
same,mean adult lifespan of treated cohort,[12],21.4 ± 0.45
same,mean adult lifespan of treated cohort,[13],24.9 ± 0.53
same,mean adult lifespan of treated cohort,[14],24.6 ± 0.58
same,mean adult lifespan of treated cohort,[15],25.9 ± 0.89
same,Kaplan-Meier median lifespan,[16]; 100 µM,36 ± 4.6
same,Kaplan-Meier median lifespan,[16]; 500 µM,37.2 ± 4
same,Kaplan-Meier median lifespan,[16]; 800 µM,36.3 ± 4.7
same,Kaplan-Meier median lifespan,[16]; 1000 µM,37.2 ± 6.3
same,Kaplan-Meier median lifespan,[16]; 4000 µM,35 ± 5
same,Kaplan-Meier median lifespan,[16]; 16000 µM,23.8 ± 2.1
same,Kaplan-Meier median lifespan,[16]; 40000 µM,25.8 ± 2.1
same,Kaplan-Meier median lifespan,[17]; 100 µM,23.3 ± 2.5
same,Kaplan-Meier median lifespan,[17]; 500 µM,25.3 ± 2.5
same,Kaplan-Meier median lifespan,[17]; 800 µM,23 ± 4.2
same,Kaplan-Meier median lifespan,[17]; 1000 µM,28 ± 3
same,Kaplan-Meier median lifespan,[17]; 4000 µM,22.8 ± 5.2
same,Kaplan-Meier median lifespan,[17]; 16000 µM,12.5 ± 1
same,Kaplan-Meier median lifespan,[17]; 40000 µM,11 ± 1.1
same,Kaplan-Meier median lifespan,[18]; 100 µM,26.5 ± 1.7
same,Kaplan-Meier median lifespan,[18]; 500 µM,25 ± 2.2
same,Kaplan-Meier median lifespan,[18]; 800 µM,26
same,Kaplan-Meier median lifespan,[18]; 1000 µM,28 ± 2.5
same,Kaplan-Meier median lifespan,[18]; 4000 µM,25.9 ± 5.6
same,Kaplan-Meier median lifespan,[18]; 16000 µM,19 ± 1.6
same,Kaplan-Meier median lifespan,[18]; 40000 µM,18.5 ± 1.9
O=C(O)CCCCC1CCSS1 (stereo not drawn) [alpha-lipoic acid],Kaplan-Meier median lifespan,[4],37.2 ± 1.3
same,Kaplan-Meier median lifespan,[5],25.8 ± 1.5
same,Kaplan-Meier median lifespan,[6],19.2 ± 1.5
same,Kaplan-Meier median lifespan,[7],15.6 ± 2.1
same,Kaplan-Meier median lifespan,[8],18.4 ± 4.2
same,Kaplan-Meier median lifespan,[9],28.4 ± 3.2
same,mean adult lifespan of treated cohort,[10],35.9 ± 0.96
same,mean adult lifespan of treated cohort,[11],26.4 ± 0.83
same,mean adult lifespan of treated cohort,[12],19.2 ± 0.4
same,mean adult lifespan of treated cohort,[13],16.3 ± 0.61
same,mean adult lifespan of treated cohort,[14],18.3 ± 0.61
same,mean adult lifespan of treated cohort,[15],27.5 ± 0.76
CC(=O)Oc1ccccc1C(=O)O [aspirin],Kaplan-Meier median lifespan,[4],37.5 ± 1.9
same,Kaplan-Meier median lifespan,[5],28.3 ± 4.4
same,Kaplan-Meier median lifespan,[6],17.5 ± 1.1
same,Kaplan-Meier median lifespan,[7],16.4 ± 1.4
same,Kaplan-Meier median lifespan,[8],17.4 ± 4.3
same,Kaplan-Meier median lifespan,[9],27.8 ± 3.7
same,mean adult lifespan of treated cohort,[10],37.2 ± 1
same,mean adult lifespan of treated cohort,[11],28 ± 1.1
same,mean adult lifespan of treated cohort,[12],17.9 ± 0.3
same,mean adult lifespan of treated cohort,[13],17 ± 0.49
same,mean adult lifespan of treated cohort,[14],18.3 ± 0.55
same,mean adult lifespan of treated cohort,[15],27 ± 0.81
COc1cc(/C=C/C(=O)CC(=O)/C=C/c2ccc(O)c(OC)c2)ccc1O [curcumin],Kaplan-Meier median lifespan,[4],30.7 ± 2.2
same,Kaplan-Meier median lifespan,[5],21.2 ± 2.8
same,Kaplan-Meier median lifespan,[6],17.7 ± 0.82
same,Kaplan-Meier median lifespan,[7],15.3 ± 1.6
same,Kaplan-Meier median lifespan,[8],19.3 ± 2
same,Kaplan-Meier median lifespan,[9],23.2 ± 1.7
same,mean adult lifespan of treated cohort,[10],30.5 ± 0.87
same,mean adult lifespan of treated cohort,[11],21.3 ± 0.66
same,mean adult lifespan of treated cohort,[12],17.1 ± 0.34
same,mean adult lifespan of treated cohort,[13],15.6 ± 0.46
same,mean adult lifespan of treated cohort,[14],19.5 ± 0.66
same,mean adult lifespan of treated cohort,[15],21.9 ± 0.82
O=c1c(O)c(-c2ccc(O)c(O)c2)oc2cc(O)cc(O)c12 [quercetin],Kaplan-Meier median lifespan,[4],35.5 ± 1.7
same,Kaplan-Meier median lifespan,[5],24.8 ± 2.5
same,Kaplan-Meier median lifespan,[6],17.8 ± 0.96
same,Kaplan-Meier median lifespan,[7],15 ± 1.8
same,Kaplan-Meier median lifespan,[8],15.2 ± 2.1
same,Kaplan-Meier median lifespan,[9],28 ± 2.2
same,mean adult lifespan of treated cohort,[10],33 ± 0.87
same,mean adult lifespan of treated cohort,[11],25.2 ± 0.76
same,mean adult lifespan of treated cohort,[12],17.6 ± 0.32
same,mean adult lifespan of treated cohort,[13],15.9 ± 0.49
same,mean adult lifespan of treated cohort,[14],17.4 ± 0.69
same,mean adult lifespan of treated cohort,[15],26.5 ± 0.79
CCCC(CCC)C(=O)O [valproic acid],Kaplan-Meier median lifespan,[4],35.3 ± 1.9
same,Kaplan-Meier median lifespan,[5],21.9 ± 1.2
same,Kaplan-Meier median lifespan,[6],17.6 ± 0.54
same,Kaplan-Meier median lifespan,[7],14.6 ± 0.98
same,Kaplan-Meier median lifespan,[8],17.4 ± 3.1
same,Kaplan-Meier median lifespan,[9],22 ± 2.6
same,mean adult lifespan of treated cohort,[10],32.9 ± 0.96
same,mean adult lifespan of treated cohort,[11],21.9 ± 0.85
same,mean adult lifespan of treated cohort,[12],17.6 ± 0.42
same,mean adult lifespan of treated cohort,[13],14.7 ± 0.48
same,mean adult lifespan of treated cohort,[14],18.2 ± 0.56
same,mean adult lifespan of treated cohort,[15],21.8 ± 0.98
